Reference: patent US7601736B2, “Pyridine derivatives, a process for their preparation and a pharmaceutical composition containing the same” (SK Chemicals Co., Ltd., priority 2003, dated 2009)

System: TNF-α
Assay: Cytokine inhibitory activity in cells: LPS-induced TNF-α in RAW 264.7
Type: cell-based, murine
Details: for inhibition at 1 µM / inhibition at 10 µM / inhibition at 100 µM / inhibition at 1000 µM: Mus musculus, RAW264.7, read-out: TNF-α Inhibition Rate (%); for inhibition at 1 µM / inhibition at 10 µM / inhibition at 100 µM / inhibition at 1000 µM / TNF-α Inhibition Rate (%): RAW 264.7, LPS 1 μg/mL; for inhibitory activity in RAW 264.7 cell line on the production of TNF-α, in words: compared to the control compounds
Description: General reagents used were purchased from Sigma-Aldrich chem. Co. and cytokine inhibitory activities were tested as follows. Mediums and reagents used in cell culture were purchased from GIBCO BRL (USA), and mouse TNF-α ELISA kit was purchased from R&D system (USA). The apparatus used ELISA reader (Spectra max-Plus 384, Molecular Device, USA).
Murine macrophage cell line RAW 264.7 was kindly provided by Korean Tissue Culture Center (KTCC). The cell line was cultured in DMEM medium containing 10% FBS, in a cell culturing device at the condition of 37° C., 5% CO2. First, murine RAW 264.7 was cultured in DMEM medium containing 10% FBS for about 24 hours, and cells were planted 200 μL each in 96 well plates at the concentration of 5×10^5/mL and cultured for about 24 hours. Then, test compounds were treated at various concentrations and then reacted at 37° C. for about 1 hour, wherein 1 μg/mL of lipopolysaccharide (LPS) was added thereto and reacted at 37° C. for about 12 hours. The supernatant was recovered and the amount of murine TNF-α on the medium was quantitated using ELISA kit. Thalidomide was respectively used as a positive and a negative control to compare the activities and the results are shown in the following tables 4a -4c.

Compound | inhibition at 1 µM (test conc. 1 μM) [%] | inhibition at 10 µM (test conc. 10 μM) [%] | inhibition at 100 µM (test conc. 100 μM) [%] | inhibition at 1000 µM (test conc. 1 mM) [%] | inhibitory activity in RAW 264.7 cell line on the production of TNF-α, in words | TNF-α Inhibition Rate (%) (test conc. 10 μM) | TNF-α Inhibition Rate (%) (test conc. 100 μM) | TNF-α Inhibition Rate (%) (test conc. 1 mM) | TNF-α Inhibition Rate (%) (test conc. 1 μM)
Cc1nc(-c2cccs2)cc2c1C(=O)OCC2 [Ex. 97, 8-methyl-6-(thiophene-2-yl)-3,4-dihydro-pyrano[3,4-c]pyridine-1-on] | 75 | 84 | 93 | 100 | superiorities over to the control compounds | – | – | – | –
O=C1OCCc2cc(-c3ccccc3)nc(Cl)c21 [Ex. 73, 8-chloro-6-phenyl-3,4-dihydro-pyrano[3,4-c]pyridine-1-on] | 56 | 63 | 72 | 80 | – | – | – | – | –
Cc1cc2c(c(N3CCN(C)CC3)n1)C(=O)OCC2 [Ex. 34, 6-methyl-8-(4-methyl-piperazine-1-yl)-3,4-dihydro-pyrano[3,4-c]pyridine-1-on] | 58 | 62 | 70 | 80 | – | – | – | – | –
Cc1cc2c(c(-c3ccccn3)n1)C(=O)OCC2 [Ex. 29, 6-methyl-8-pyridine-2-yl-3,4-dihydro-pyrano[3,4-c]pyridine-1-on] | 10 | 15 | 18 | 30 | – | – | – | – | –
O=C1NCCc2ccncc21 [Ex. 116, 3,4-dihydro-2H-[2,7]naphtyridine-1-on] | – | – | – | – | – | 10 | 18 | 29 | –
Cc1nc(-c2ccc3c(c2)OCO3)cc2c1C(=O)OCC2 [Ex. 99, 6-(benzo[d][1,3]dioxol-6-yl)-8methyl-3,4-dihydro-pyrano[3,4c]pyridine-1-on] | – | – | – | – | – | 19 | 22 | 35 | 9
Cc1cc2c(c(-c3ccc(Cl)cc3)n1)C(=O)OCC2 [Ex. 31, 8-(4-chloro-phenyl)-6-methyl-3,4-dihydro-pyrano[3,4-c]pyridine-1-on] | 100 | 100 | 100 | 100 | superiorities over to the control compounds | – | – | – | –
COc1nc(C)cc2c1C(=O)OCC2 [Ex. 22, 8-methoxy-6-methyl-3,4-dihydro-pyrano[3,4-c]pyridine-1-on] | – | 10 | 17 | 30 | – | – | – | – | –
O=C1OCCc2cc(-c3ccccc3)ncc21 [Ex. 68, 6-phenyl-3,4-dihydro-pyrano[3,4-c]pyridine-1-on] | 50 | 58 | 65 | 76 | – | – | – | – | –
Cc1cc2c(c(Cl)n1)C(=O)OCC2 [Ex. 20, 8-chloro-6-methyl-3,4-dihydro-pyrano[3,4-c]pyridine-1-on] | 15 | 21 | 31 | 41 | – | – | – | – | –
Cc1cc2c(c(Oc3ccccc3)n1)C(=O)OCC2 [Ex. 50, 6-methyl-8-phenoxy-3,4-dihydro-pyrano[3,4-c]pyridine-1-on] | 5 | 9 | 19 | 25 | – | – | – | – | –
Cc1cc2c(c(C)n1)C(=O)OCC2 [Ex. 26, 6,8-dimethyl-3,4-dihydro-pyrano[3,4-c]pyridine-1-on] | – | 6 | 17 | 28 | – | – | – | – | –
Cc1cc2c(c(NCc3ccccc3)n1)C(=O)OCC2 [Ex. 51, 8-benzylamino-6-methyl-3,4-dihydro-pyrano[3,4-c]pyridine-1-on] | 9 | 15 | 21 | 30 | – | – | – | – | –
Cc1nc(-c2ccco2)cc2c1C(=O)OCC2 [Ex. 98, 6-(furan-2-yl)-8-methyl-3,4-dihydro-pyrano[3,4-c]pyridine-1-on] | 56 | 64 | 72 | 87 | – | – | – | – | –
Cc1nc(Cl)c2c(c1-c1ccccc1)CCOC2=O [Ex. 61, 8-chloro-6-methyl-5-phenyl-3,4-dihydro-pyrano[3,4-c]pyridine-1-on] | 87 | 100 | 100 | 100 | superiorities over to the control compounds | – | – | – | –
Cc1nc(O)c2c(c1-c1ccccc1)CCOC2=O [Ex. 60, 8-hydroxy-6-methyl-5-phenyl-3,4-dihydro-pyrano[3,4-c]pyridine-1-on] | 39 | 48 | 56 | 78 | – | – | – | – | –
O=C1OCCc2c1cnc1ccccc21 [Ex. 112, 3,4-dihydro-2-oxa-9-aza-phenanthrene-1-on] | 24 | 28 | 33 | 35 | – | – | – | – | –
Cc1ccc(Nc2nc(C)cc3c2C(=O)OCC3)cc1 [Ex. 39, 6-methyl-8-p-tolylamino-3,4-dihydro-pyrano[3,4-c]pyridine-1-on] | 9 | 22 | 31 | 40 | – | – | – | – | –
Cc1cc2c(c(-c3ccccc3)n1)C(=O)OCC2 [Ex. 46, 6-methyl-8-phenyl-3,4-dihydro-pyrano[3,4-c]pyridine-1-on] | 3 | 9 | 19 | 29 | – | – | – | – | –
Cc1cc2c(c(-c3ccco3)n1)C(=O)OCC2 [Ex. 27, 6-methyl-8-furan-2-yl-3,4-dihydro-pyrano[3,4-c]pyridine-1-on] | 30 | 43 | 68 | 81 | – | – | – | – | –
Cc1cc2c(c(Nc3ccc(Cl)cc3)n1)C(=O)OCC2 [Ex. 37, 8-(4-chloro-phenylamino)-6-methyl-3,4-dihydro-pyrano[3,4-c]pyridine-1-on] | 54 | 69 | 78 | 89 | – | – | – | – | –
Cc1nc(-c2ccc(N(C)C)cc2)cc2c1C(=O)OCC2 [Ex. 100, 6-(4-(dimethylamino)phenyl)-8-methyl-3,4-dihydro-pyrano[3,4-c]pyridine-1-on] | – | 9 | 18 | 29 | – | – | – | – | –
O=C1OC(c2ccccc2)Cc2ccncc21 (stereo not drawn) [Ex. 120a, 3-phenyl-3,4-dihydro-pyrano[3,4-c]pyridine-1-on] | 43 | 54 | 66 | 85 | – | – | – | – | –
O=C1NC(c2ccccc2)Cc2ccncc21 (stereo not drawn) [Ex. 120b, 3-phenyl-3,4-dihydro-2H-[2,7]naphtyridine-1-on] | – | – | – | – | – | 30 | 32 | 42 | 26
O=C1CCC(N2C(=O)c3ccccc3C2=O)C(=O)N1 (stereo not drawn) [Thalidomide, reference compound] | 8 | 12 | 20 | 21 | – | – | – | – | –
Cc1ncc2c(c1-c1ccccc1)CCOC2=O [Ex. 62, 6-methyl-5-phenyl-3,4-dihydro-pyrano[3,4-c]pyridine-1-on] | 60 | 78 | 89 | 100 | superiorities over to the control compounds | – | – | – | –
Cc1cc2c(c(Nc3ccc(F)cc3)n1)C(=O)OCC2 [Ex. 35, 8-(4-fluoro-phenylamino)-6-methyl-3,4-dihydro-pyrano[3,4-c]pyridine-1-on] | 9 | 17 | 26 | 32 | – | – | – | – | –
Cc1cc2c(c(-c3cccs3)n1)C(=O)OCC2 [Ex. 28, 6-methyl-8-thiophene-2-yl-3,4-dihydro-pyrano[3,4-c]pyridine-1-on] | 8 | 27 | 37 | 59 | – | – | – | – | –
Cc1nc(Cl)cc2c1C(=O)OCC2 [Ex. 96, 6-chloro-8-methyl-3,4-dihydro-pyrano[3,4-c]pyridine-1-on] | 38 | 46 | 56 | 63 | – | – | – | – | –
S=C1OCCc2ccncc21 [Ex. 113, 3,4-dihydro-pyrano[3,4-c]pyridine-1-thione] | 10 | 19 | 28 | 42 | – | – | – | – | –
